The source of these data is patent publication US20160333006A1, “ARYL LACTA KINASE INHIBITORS” (Bristol-Myers Squibb Company, priority 2014, published 2016).

One assay concerns the target T1, GST-Xa-hAAK1 (Homo sapiens, UniProt Q2M2I8).
T1 construct: made in house
The assay is described as follows: AAK1 kinase assay. The class given is biochemical. The following applies: ATP 22 μM. As to the method:
The assays were performed in U-bottom 384-well plates. […] The reactions were initiated by the combination of bacterially expressed, GST-Xa-hAAK1 with substrates and test compounds. The reactions were incubated at room temperature for 3 hours and terminated by adding 60 μl of 35 mM EDTA buffer to each sample. The reactions were analyzed on the Caliper LabChip 3000 (Caliper, Hopkinton, Mass.) by electrophoretic separation of the fluorescent substrate and phosphorylated product. […] Compounds were dissolved at 10 mM in dimethylsulfoxide (DMSO) and evaluated at eleven concentrations. IC50 values were derived by non-linear regression analysis.

Assay [1] has as its target T2, AAK1 (full length human) in HEK293F cells (Homo sapiens, UniProt Q2M2I8).
T2 construct: fused on or other part: HA tag (AAK1/HA in pIRES vector)
The assay is described as follows: HEK281 cell-based assay (phospho-mu2 Western blot in transfected HEK293F cells). The following applies: 3 hours, phospho-mu2, given as IC50 range. As to the method: On day one, cells were plated on a 10 cm dish so that they are ˜80% confluent at time oftransfection. Roughly 12 million cells were in a 10 cm dish at time of transfection. […] The DNA was comprised of a mixture (per 10 cm dish) containing 3 ug AAK1/HA/pIRES (full length human, NCBI accession no. NP_055726.2), 45 μg Flag/AP2MI/pcDNA (full length human), and 1.5 ml OPTI-MEM. The Lipofectamine 2000 is made up of a mixture (per 10 cm dish) containing 144 μl Lipofectamine 2000 and 1.5 ml OPTI-MEM. Each mixture was transferred to individual 15 ml tubes and incubated at RT for 5 minutes, and then the two mixes were combined and incubated at RT for 20 minutes. Growth media was then aspirated from each 10 cm plate and replaced with 10 ml of DMEM+10% FBS (no GPS). Finally, 3 ml DNA/Lipofectamine mix was added to each 10 cm dish and mix gently followed by incubate of plate overnight at 37° C. and 5% CO2.
On day three, compounds were diluted in 100% DMSO at 1000× final concentration, followed by 3-fold serial dilutions for a total of 5 concentrations tested. Four compounds were tested per 10 cm dish. One ul of each compound dilution was then pipetted into a deep-well, 96-well plate, followed by addition of 500 μl DMEM+0.5% FBS into each well for a 2× final concentration of each compound. Cells were resuspended in a 10 cm dish by simple pipetting (HEK293 cells come off the plate that easy at this point) and then transferred to a 50 ml conical tube and pelleted by centrifugation at 1000 rpm for 5 min. Cell pellets were then resuspended in 2.75 ml DMEM+0.5% FBS per 10 cm dish and 100 μl of cell suspension transferred into each well of 96-well TC plate. Finally, 100 μl of 2× compound diluted in DMEM+0.5% FBS was then added into wells containing cell suspension for a 1× final concentration. Plates were then incubated at 37° C. and 5% CO2 for 3 hours followed by transferring of cell suspensions from each well into 12-tube PCR strips. The PCR strips were spun in a tip rack at 1000 rpm for 5 minutes to pellet cells and media was then removed by pipetting without disturbing the cell pellet.
Five ul of 10× NuPage Sample Reducing Agent (with 50 mM DTT) was to each sample followed by heat denaturing at 70 C for 10 min on PCR machine. […] For controls, 2 ng of phospho-mu2 or 20 ng mu2/Flag proteins were loaded in the last well of each gel. After SDS-PAGE, samples on each gel were transferred to PVDF membrane using an iBlot and membranes were blocked for one hour in TBST+5% milk, followed by wash 3× for 5-10 min with TBST.
Finally, the camera was set up to take a picture every 30 seconds for 10 minutes and the best image saved for each blot with no saturated signal (when the signal is saturated, the bands will be highlighted red). A volume analysis on each band was performed to obtain density values. Percent inhibition was calculated for each sample by first normalizing to total Mu2 expression levels and then comparing to 0% and 100% controls. IC50 values were then calculated using Excel fitting software.

pIC50: −log10 of the molar value. Bounds are passed on as bounds.

T2 sequence (Q2M2I8 1-822 limits assumed): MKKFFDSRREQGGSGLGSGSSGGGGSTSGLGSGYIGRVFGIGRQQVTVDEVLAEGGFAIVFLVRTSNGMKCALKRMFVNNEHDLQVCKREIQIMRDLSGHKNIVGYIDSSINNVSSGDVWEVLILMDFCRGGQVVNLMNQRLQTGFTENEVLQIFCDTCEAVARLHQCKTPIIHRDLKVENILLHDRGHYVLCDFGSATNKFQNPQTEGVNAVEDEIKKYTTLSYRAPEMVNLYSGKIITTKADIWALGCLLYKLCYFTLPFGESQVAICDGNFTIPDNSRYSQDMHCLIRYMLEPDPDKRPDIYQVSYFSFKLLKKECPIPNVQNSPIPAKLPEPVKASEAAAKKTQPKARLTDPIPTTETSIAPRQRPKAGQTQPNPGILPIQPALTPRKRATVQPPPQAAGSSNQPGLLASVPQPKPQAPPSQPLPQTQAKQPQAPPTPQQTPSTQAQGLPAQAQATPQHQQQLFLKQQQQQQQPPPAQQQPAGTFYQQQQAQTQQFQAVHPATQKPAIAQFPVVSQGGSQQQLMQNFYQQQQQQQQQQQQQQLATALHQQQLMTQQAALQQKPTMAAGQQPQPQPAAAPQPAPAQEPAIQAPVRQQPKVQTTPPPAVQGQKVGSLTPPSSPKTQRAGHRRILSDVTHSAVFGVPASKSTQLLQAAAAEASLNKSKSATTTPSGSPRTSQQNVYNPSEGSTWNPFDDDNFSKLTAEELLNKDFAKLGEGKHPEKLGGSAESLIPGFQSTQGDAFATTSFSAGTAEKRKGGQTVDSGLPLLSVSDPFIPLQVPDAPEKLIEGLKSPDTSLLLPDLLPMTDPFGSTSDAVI
T1 sequence (Q2M2I8 whole entry): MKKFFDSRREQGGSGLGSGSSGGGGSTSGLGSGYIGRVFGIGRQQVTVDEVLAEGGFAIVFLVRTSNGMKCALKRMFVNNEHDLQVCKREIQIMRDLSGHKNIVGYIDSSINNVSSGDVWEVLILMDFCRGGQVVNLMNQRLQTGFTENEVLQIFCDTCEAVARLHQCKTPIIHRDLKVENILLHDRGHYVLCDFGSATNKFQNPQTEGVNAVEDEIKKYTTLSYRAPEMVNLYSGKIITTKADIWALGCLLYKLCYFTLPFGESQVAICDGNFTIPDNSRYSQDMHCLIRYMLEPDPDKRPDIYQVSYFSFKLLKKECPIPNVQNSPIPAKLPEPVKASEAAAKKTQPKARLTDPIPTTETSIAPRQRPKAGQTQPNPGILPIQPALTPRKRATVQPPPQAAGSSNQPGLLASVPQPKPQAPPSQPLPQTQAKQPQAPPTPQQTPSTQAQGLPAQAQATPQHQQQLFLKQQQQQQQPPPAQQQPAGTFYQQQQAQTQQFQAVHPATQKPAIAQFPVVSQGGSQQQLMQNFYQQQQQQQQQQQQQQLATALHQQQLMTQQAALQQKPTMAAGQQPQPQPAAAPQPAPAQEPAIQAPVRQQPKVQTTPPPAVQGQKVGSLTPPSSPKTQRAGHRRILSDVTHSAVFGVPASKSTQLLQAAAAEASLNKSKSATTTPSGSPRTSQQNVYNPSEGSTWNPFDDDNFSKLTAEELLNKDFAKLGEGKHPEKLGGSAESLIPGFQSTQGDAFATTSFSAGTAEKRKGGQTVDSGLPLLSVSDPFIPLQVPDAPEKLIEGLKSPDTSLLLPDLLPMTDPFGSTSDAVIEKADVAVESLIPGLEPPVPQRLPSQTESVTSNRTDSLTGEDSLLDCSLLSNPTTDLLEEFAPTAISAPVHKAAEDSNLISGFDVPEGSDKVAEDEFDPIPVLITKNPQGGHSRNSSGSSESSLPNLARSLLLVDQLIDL

On to `Cc1nccc2c1c(=O)n(C)c1cc(OCC(N)CC(F)(F)F)c(Br)cc21` (single isomer, unassigned) [Example 138, 8-(2-amino-4,4,4-trifluorobutoxy)-9-bromo-4,6-dimethylbenzo[c][2,7]naphthyridin-5(6H)-one], for which the pIC50 (usually the negative decadic logarithm of the IC50, by convention in mol/L) on GST-Xa-hAAK1 (given as IC50 range) was 8.00 to 9.00; in assay [1] it was 7.00 to 8.00. Take `Cc1nccc2c1c(=O)n(C)c1cc(OCC(N)CC(F)(F)F)c(Br)cc21` (single isomer, unassigned) [Example 139, 8-(2-amino-4,4,4-trifluorobutoxy)-9-bromo-4,6-dimethylbenzo[c][2,7]naphthyridin-5(6H)-one]: the values for the pIC50 (at GST-Xa-hAAK1 (given as IC50 range); in assay [1]) were greater than 9.00 and 8.00 to 9.00, respectively. For `Cc1nccc2c1c(=O)n(C)c1cc(OC[C@@H](N)CC(C)C)c(-c3ccccn3)cc21` [Example 86, (S)-8-((2-amino-4-methylpentyl)oxy)-4,6-dimethyl-9-(pyridin-2-yl)benzo[c][2,7]naphthyridin-5(6H)-one] the same measures were 7.00 to 8.00 and 7.00 to 8.00. For `CC(C)C[C@H](N)COc1cc2[nH]c(=O)c3cnccc3c2cc1Br` [Example 108, (S)-8-((2-amino-4-methylpentyl)oxy)-9-bromobenzo[c][2,7]naphthyridin-5(6H)-one] the same measures were 8.00 to 9.00 and 8.00 to 9.00. For `Cc1cc2c(cc1OC[C@@H](N)CC(C)C)[nH]c(=O)c1cnccc12` [Example 109, (S)-8-((2-amino-4-methylpentyl)oxy)-9-methylbenzo[c][2,7]naphthyridin-5(6H)-one] the same measures were 8.00 to 9.00 and 8.00 to 9.00. As for `Cn1c(=O)c2cnccc2c2cc(Br)c(OCC(N)CCC(F)(F)F)cc21` (stereo not drawn) [Example 113, 8-((2-amino-5,5,5-trifluoropentyl)oxy)-9-bromo-6-methylbenzo[c][2,7]naphthyridin-5(6H)-one], the pIC50 (on GST-Xa-hAAK1 (given as IC50 range); in assay [1]) was 8.00 to 9.00 in each case. For the molecule `Cn1c(=O)c2cnccc2c2cc(-c3cnco3)c(OCC(N)CCC(F)(F)F)cc21` (stereo not drawn) [Example 114, 8-((2-amino-5,5,5-trifluoropentyl)oxy)-6-methyl-9-(oxazol-5-yl)benzo[c][2,7]naphthyridin-5(6H)-one], the pIC50 at GST-Xa-hAAK1 (given as IC50 range) was 8.00 to 9.00; in assay [1] it was 7.00 to 8.00. For `Cn1c(=O)c2cnccc2c2cc(Cl)c(OCC(N)CCC(F)(F)F)cc21` (stereo not drawn) [Example 115, 8-((2-amino-5,5,5-trifluoropentyl)oxy)-9-chloro-6-methylbenzo[c][2,7]naphthyridin-5(6H)-one], the negative logarithm of the IC50 (pIC50) (at GST-Xa-hAAK1 (given as IC50 range); in assay [1]) was 8.00 to 9.00 each time. Consider `Cn1c(=O)c2cnccc2c2cc(Cl)c(OCC(N)CCC(F)(F)F)cc21` (stereo not drawn) [Example 116, 8-((2-amino-5,5,5-trifluoropentyl)oxy)-9-chloro-6-methylbenzo[c][2,7]naphthyridin-5(6H)-one], for which the pIC50 (at GST-Xa-hAAK1 (given as IC50 range); in assay [1]) was 7.00 to 8.00 throughout.

Regarding `Cn1c(=O)c2cnccc2c2cc(Cl)c(OCC(N)CCC(F)(F)F)cc21` (stereo not drawn) [Example 117, 8-((2-amino-5,5,5-trifluoropentyl)oxy)-9-chloro-6-methylbenzo[c][2,7]naphthyridin-5(6H)-one], the pIC50 (at GST-Xa-hAAK1 (given as IC50 range); in assay [1]) was 8.00 to 9.00 in each case.

Consider `Cn1c(=O)c2c(N)nccc2c2ccc(OCC(N)CCC(F)(F)F)cc21` (stereo not drawn) [Example 118, 4-amino-8-((2-amino-5,5,5-trifluoropentyl)oxy)-6-methylbenzo[c][2,7]naphthyridin-5(6H)-one], for which the results for the pIC50 (at GST-Xa-hAAK1 (given as IC50 range); in assay [1]) were 8.00 to 9.00 and 7.00 to 8.00, respectively. In assay [1], `Cn1c(=O)c2c(N)nccc2c2ccc(OCC(N)CCC(F)(F)F)cc21` (stereo not drawn) [Example 119, 4-amino-8-((2-amino-5,5,5-trifluoropentyl)oxy)-6-methylbenzo[c][2,7]naphthyridin-5(6H)-one] had a negative-log IC50 (pIC50) of 8.00 to 9.00. Molecule `Cn1c(=O)c2c(N)nccc2c2ccc(OCC(N)CCC(F)(F)F)cc21` (stereo not drawn) [Example 120, 4-amino-8-((2-amino-5,5,5-trifluropentyl)oxy)-6-methylbenzo[c][2,7]naphthyridin-5(6H)-one] had a pIC50 in assay [1] of 8.00 to 9.00. For the molecule `CC(C)C[C@H](N)COc1cc2c(cc1C(F)F)c1ccncc1c(=O)n2C` [Example 121, (S)-8-((2-amino-4-methylpentyl)oxy)-9-(difluoromethyl)-6-methylbenzo[c][2,7]naphthyridin-5(6H)-one], the pIC50 (on GST-Xa-hAAK1 (given as IC50 range); in assay [1]) was 8.00 to 9.00 throughout. On to `COc1ccc2c3ccnc(C)c3c(=O)n(C)c2c1` [Example 144, 8-methoxy-4,6-dimethylbenzo[c][2,7]naphthyridin-5(6H)-one], for which the pIC50 on GST-Xa-hAAK1 (given as IC50 range) is 5.70 to 7.00. With `CC(C)NCC(O)COc1ccc2c3ccncc3c(=O)n(C)c2c1` (stereo not drawn) [Example 146, 8-(2-hydroxy-3-(isopropylamino)propoxy)-6-methylbenzo[c][2,7]naphthyridin-5(6H)-one], on GST-Xa-hAAK1 (given as IC50 range), the pIC50 was 5.70 to 7.00. `Cc1nccc2c1c(=O)n(C)c1cc(OCC(O)CNC(C)C)ccc21` (stereo not drawn) [Example 147, 8-(2-hydroxy-3-(isopropylamino)propoxy)-4,6-dimethylbenzo[c][2,7]naphthyridin-5(6H)-one]: at GST-Xa-hAAK1 (3 hours at room temperature), the pIC50 is 5.88. `Cc1nccc2c1c(=O)n(C)c1cc(OCC(O)CNC(C)C)c(Br)cc21` (stereo not drawn) [Example 149, 9-bromo-8-(2-hydroxy-3-(isopropylamino)propoxy)-4,6-dimethylbenzo[c][2,7]naphthyridin-5(6H)-one]: the pIC50 at GST-Xa-hAAK1 (given as IC50 range) is 7.00 to 8.00. Consider `CC(C)CC(C)COc1ccc2c3ccncc3c(=O)n(C)c2c1` (stereo not drawn) [Example 150, 8-((2,4-dimethylpentyl)oxy)-6-methylbenzo[c][2,7]naphthyridin-5(6H)-one], for which, on GST-Xa-hAAK1 (given as IC50 range), the pIC50 was 7.00 to 8.00. Same read-out and setting: the figure for `CC(C)CCCOc1ccc2c3ccncc3c(=O)n(C)c2c1` [Example 151, 6-methyl-8-((4-methylpentyl)oxy)benzo[c][2,7]naphthyridin-5(6H)-one] is 7.00 to 8.00; for `Cc1nccc2c1c(=O)n(C)c1cc(OC[C@@H](O)CC(C)C)ccc21` [Example 152, (S)-8-((2-hydroxy-4-methylpentyl)oxy)-4,6-dimethylbenzo[c][2,7]naphthyridin-5(6H)-one] it is 7.00 to 8.00.

As for `Cc1nccc2c1c(=O)n(C)c1cc(OCC(O)COC(C)C)ccc21` (stereo not drawn) [Example 153, 8-(2-hydroxy-3-isopropoxypropoxy)-4,6-dimethylbenzo[c][2,7]naphthyridin-5(6H)-one], the pIC50 at GST-Xa-hAAK1 (given as IC50 range) is 5.70 to 7.00. With `CC(C)CC(C)COc1cc2c(cc1Br)c1ccncc1c(=O)n2C` (stereo not drawn) [Example 154, 9-bromo-8-((2,4-dimethylpentyl)oxy)-6-methylbenzo[c][2,7]naphthyridin-5(6H)-one], the pIC50 at GST-Xa-hAAK1 (given as IC50 range) was 7.00 to 8.00. Consider `Cc1nccc2c1c(=O)n(C)c1cc(OCC(C)CC(C)C)ccc21` (stereo not drawn) [Example 155, 8-((2,4-dimethylpentyl)oxy)-4,6-dimethylbenzo[c][2,7]naphthyridin-5(6H)-one], for which the pIC50 on GST-Xa-hAAK1 (given as IC50 range) was 5.70 to 7.00.

In the case of `Cc1nccc2c1c(=O)n(C)c1cc(OCCCC(C)C)ccc21` [Example 156, 4,6-dimethyl-8-((4-methylpentyl)oxy)benzo[c][2,7]naphthyridin-5(6H)-one], the pIC50 at GST-Xa-hAAK1 (given as IC50 range) is 7.00 to 8.00. With `CC(C)CC(C)COc1ccc2c3ccncc3c(=O)n(C)c2c1` (stereo not drawn) [Example 157, 8-((2,4-dimethylpentyl)oxy)-6-methylbenzo[c][2,7]naphthyridin-5(6H)-one], the pIC50 at GST-Xa-hAAK1 (given as IC50 range) is 7.00 to 8.00.

On to `CC(C)CC(C)COc1ccc2c3ccncc3c(=O)n(C)c2c1` (stereo not drawn) [Example 158, 8-((2,4-dimethylpentyl)oxy)-6-methylbenzo[c][2,7]naphthyridin-5(6H)-one], for which, on GST-Xa-hAAK1 (given as IC50 range), the pIC50 was 7.00 to 8.00.
